Test results reported in patent US11807625B2, “Capsid inhibitors for the prevention of HIV” (Gilead Sciences, Inc., priority 2019, dated 2023).
Where two headings read alike, the source gives them in different places.

Assay: PK of compound of Formula (Ia) after single subcutaneous dose of solution formulations in beagle dogs
Format: in vivo
Conditions: male, beagle, dog, plasma, sc, 12 mg/kg; for AUC(0-t): male beagle dogs, single SC 12 mg/kg, mean ± SD, n = 3
Protocol: Formulations containing the compound of Formula (Ia), or a pharmaceutically acceptable salt thereof, were prepared as solutions and optionally administered subcutaneously or intramuscularly to rats, rabbits, and/or dogs.
A solution of about 400 mg/mL of the compound of Formula (Ia) having 17.00 w/w % water, 36.40 w/w % PEG 300, 35.20 w/w % of a sodium salt of a compound of Formula (Ia), 5.00 w/w % ethanol, and 6.40 w/w % poloxamer 188 was prepared. The solution was administered subcutaneously to male beagle dogs at a dose level of about 12 mg/kg and male Wistar Han rats at a dose level of about 50 mg/kg. The pharmacokinetic profiles were determined, and the results for dogs are summarized in Table and Table, while the results for rats are summarized in Table and Table below.
A solution of about 500 mg/mL of the compound of Formula (Ia) having 14.06 w/w % water, 30.12 w/w % PEG 300, […] of a sodium salt of a compound of Formula (Ia), 5.00 w/w % ethanol, and 6.40 w/w % poloxamer 188 was prepared. The solution was administered subcutaneously to male beagle dogs at a dose level of about 12 mg/kg and male Wistar Han rats at a dose level of about 50 mg/kg. The pharmacokinetic profiles were determined, and the results for dogs are summarized in Table and Table, while the results for rats are summarized in Table and Table below.
A solution of about 300 mg/mL of the compound of Formula (Ia) having 23.33 w/w % water, 48.99 w/w % PEG 300, 26.47 w/w % of a sodium salt of a compound of Formula (Ia), and 1.21 w/w % poloxamer 188 was prepared. The solution was administered subcutaneously to male beagle dogs at a dose level of about 6 mg/kg and male Wistar Han rats at a dose level of about 50 mg/kg. The pharmacokinetic profiles were determined, and the results for dogs are summarized in Table and Table, while the results for rats are summarized in Table and Table below.
A solution of about 400 mg/mL of the compound of Formula (Ia) having 18.80 w/w % water, 40.25 w/w % PEG 300, 34.38 w/w % of a sodium salt of a compound of Formula (Ia), 5.00 w/w % ethanol, and 1.57 w/w % poloxamer 188 was prepared. The solution was administered subcutaneously to male beagle dogs at a dose level of about 12 mg/kg and male Wistar Han rats at a dose level of about 50 mg/kg. The pharmacokinetic profiles were determined, and the results for dogs are summarized in Table and Table, while the results for rats are summarized in Table and Table below.
A solution of about 500 mg/mL of the compound of Formula (Ia) having 16.29 w/w % water, 34.88 w/w % PEG 300, 41.92 w/w % of a sodium salt of a compound of Formula (Ia), 5.00 w/w % ethanol, and 1.91 w/w % poloxamer 188 was prepared. The solution was administered subcutaneously to male beagle dogs at a dose level of about 12 mg/kg and male Wistar Han rats at a dose level of about 50 mg/kg. The pharmacokinetic profiles were determined, and the results for dogs are summarized in Table and Table, while the results for rats are summarized in Table and Table below.
A solution of about 400 mg/mL of the compound of Formula (Ia) having 20.90 w/w % water, 44.72 w/w % PEG 300, and 34.38 w/w % of a sodium salt of a compound of Formula (Ia) was prepared. The solution was administered subcutaneously to male beagle dogs at a dose level of about 12 mg/kg and male Wistar Han rats at a dose level of about 50 mg/kg. The pharmacokinetic profiles were determined, and the results for dogs are summarized in Table and Table, while the results for rats are summarized in Table and Table below.
A solution of about 400 mg/mL of the compound of Formula (Ia) having 19.90 w/w % water, 42.59 w/w % PEG 300, 34.38 w/w % of a sodium salt of a compound of Formula (Ia), and 3.13 w/w % poloxamer 188 was prepared. The solution was administered subcutaneously to male beagle dogs at a dose level of about 12 mg/kg and male Wistar Han rats at a dose level of about 50 mg/kg. […]

[1] = beagle dogs, SC 12 mg/kg, 500 mg/mL solution X (5.00% ethanol, 1.91% poloxamer 188), Mean n = 3
[2] = beagle dogs, SC 12 mg/kg, 500 mg/mL solution X (5.00% ethanol, 1.91% poloxamer 188), animals #1-#3

CC(C)(C#Cc1ccc(-c2ccc(Cl)c3c(NS(C)(=O)=O)nn(CC(F)(F)F)c23)c([C@H](Cc2cc(F)cc(F)c2)NC(=O)Cn2nc(C(F)(F)F)c3c2C(F)(F)[C@@H]2C[C@H]32)n1)S(C)(=O)=O [compound of Formula (Ia)]
concentration at 24 h [1]: 39.7 nM
concentration at 24 h [2]: 32.8 nM
concentration at 48 h [1]: 44.7 nM
concentration at 48 h [2]: 39.8 nM
concentration at 72 h (beagle dogs, SC 12 mg/kg, 500 mg/mL solution X (5.00% ethanol, 1.91% poloxamer 188), 72.0 h, Mean n = 3): 36.5 nM
concentration at 96 h (beagle dogs, SC 12 mg/kg, 500 mg/mL solution X (5.00% ethanol, 1.91% poloxamer 188), 96.0 h, Mean n = 3): 31.4 nM
concentration at 168 h (beagle dogs, SC 12 mg/kg, 500 mg/mL solution X (5.00% ethanol, 1.91% poloxamer 188), 168 h, Mean n = 3): 39.2 nM
concentration at 336 h (beagle dogs, SC 12 mg/kg, 500 mg/mL solution X (5.00% ethanol, 1.91% poloxamer 188), 336 h, Mean n = 3): 50.3 nM
concentration at 504 h (beagle dogs, SC 12 mg/kg, 500 mg/mL solution X (5.00% ethanol, 1.91% poloxamer 188), 504 h, Mean n = 3): 114 nM
concentration at 672 h (beagle dogs, SC 12 mg/kg, 500 mg/mL solution X (5.00% ethanol, 1.91% poloxamer 188), 672 h, Mean n = 3): 110 nM
concentration at 840 h (beagle dogs, SC 12 mg/kg, 500 mg/mL solution X (5.00% ethanol, 1.91% poloxamer 188), 840 h, Mean n = 3): 61.4 nM
concentration at 1008 h (beagle dogs, SC 12 mg/kg, 500 mg/mL solution X (5.00% ethanol, 1.91% poloxamer 188), 1008 h, Mean n = 3): 68.3 nM
concentration at 1344 h (beagle dogs, SC 12 mg/kg, 500 mg/mL solution X (5.00% ethanol, 1.91% poloxamer 188), 1344 h, Mean n = 3): 48.5 nM
concentration at 1680 h (beagle dogs, SC 12 mg/kg, 500 mg/mL solution X (5.00% ethanol, 1.91% poloxamer 188), 1680 h, Mean n = 3): 37.7 nM
concentration at 2016 h (beagle dogs, SC 12 mg/kg, 500 mg/mL solution X (5.00% ethanol, 1.91% poloxamer 188), 2016 h, Mean n = 3): 23.4 nM
concentration at 2352 h (beagle dogs, SC 12 mg/kg, 500 mg/mL solution X (5.00% ethanol, 1.91% poloxamer 188), 2352 h, Mean n = 3): 24.3 nM
concentration at 2688 h (beagle dogs, SC 12 mg/kg, 500 mg/mL solution X (5.00% ethanol, 1.91% poloxamer 188), 2688 h, Mean n = 3): 14.6 nM
concentration at 3024 h (beagle dogs, SC 12 mg/kg, 500 mg/mL solution X (5.00% ethanol, 1.91% poloxamer 188), 3024 h, Mean n = 3): 14.6 nM
concentration at 3360 h (beagle dogs, SC 12 mg/kg, 500 mg/mL solution X (5.00% ethanol, 1.91% poloxamer 188), 3360 h, Mean n = 3): 9.6 nM
concentration at 3696 h (beagle dogs, SC 12 mg/kg, 500 mg/mL solution X (5.00% ethanol, 1.91% poloxamer 188), 3696 h, Mean n = 3): 8.6 nM
concentration at 4032 h (beagle dogs, SC 12 mg/kg, 500 mg/mL solution X (5.00% ethanol, 1.91% poloxamer 188), 4032 h, Mean n = 3): 8.3 nM
concentration at 4368 h (beagle dogs, SC 12 mg/kg, 500 mg/mL solution X (5.00% ethanol, 1.91% poloxamer 188), 4368 h, Mean n = 3): 6.4 nM
AUC(0-t) (400 mg/mL solution AA (6.25% poloxamer 188), read-out: AUC0-24 h): 1.57 ± 0.56 µM·h
AUC(0-t) (400 mg/mL solution AA (6.25% poloxamer 188), read-out: AUC0-168 h): 22.2 ± 7 µM·h
AUC(0-t) (400 mg/mL solution AA (6.25% poloxamer 188), read-out: AUC0-336 h): 46.3 ± 9.4 µM·h
AUC(0-t) (400 mg/mL solution AA (6.25% poloxamer 188), read-out: AUC0-672 h): 108 ± 26 µM·h
AUC(0-t) (400 mg/mL solution AA (6.25% poloxamer 188), read-out: AUC0-1008 h): 149 ± 31 µM·h
AUC(0-t) (400 mg/mL solution AA (6.25% poloxamer 188), read-out: AUC0-1344 h): 171 ± 33 µM·h
AUC(0-t) (400 mg/mL solution AA (6.25% poloxamer 188), read-out: AUC0-2352 h): 195 ± 35 µM·h
AUC(0-t) (400 mg/mL solution AA (6.25% poloxamer 188), read-out: AUC0-3024 h): 200 ± 35 µM·h
AUC(0-t) (400 mg/mL solution AA (6.25% poloxamer 188), read-out: AUC0-3696 h): 208 ± 47 µM·h
AUC(0-t) (400 mg/mL solution Y (water, PEG 300), read-out: AUC0-24 h): 0.996 ± 0.513 µM·h
AUC(0-t) (400 mg/mL solution Y (water, PEG 300), read-out: AUC0-168 h): 9.61 ± 2.6 µM·h
AUC(0-t) (400 mg/mL solution Y (water, PEG 300), read-out: AUC0-336 h): 27.4 ± 1.9 µM·h
AUC(0-t) (400 mg/mL solution Y (water, PEG 300), read-out: AUC0-672 h): 100 ± 7.2 µM·h
AUC(0-t) (400 mg/mL solution Y (water, PEG 300), read-out: AUC0-1008 h): 146 ± 11 µM·h
AUC(0-t) (400 mg/mL solution Y (water, PEG 300), read-out: AUC0-1344 h): 172 ± 16 µM·h
AUC(0-t) (400 mg/mL solution Y (water, PEG 300), read-out: AUC0-2352 h): 200 ± 19 µM·h
AUC(0-t) (400 mg/mL solution Y (water, PEG 300), read-out: AUC0-3024 h): 207 ± 19 µM·h
AUC(0-t) (400 mg/mL solution Y (water, PEG 300), read-out: AUC0-3696 h): 210 ± 18 µM·h
AUC(0-t) (400 mg/mL solution Z (3.13% poloxamer 188), read-out: AUC0-24 h): 1.02 ± 0.58 µM·h
AUC(0-t) (400 mg/mL solution Z (3.13% poloxamer 188), read-out: AUC0-168 h): 10.6 ± 4.9 µM·h
AUC(0-t) (400 mg/mL solution Z (3.13% poloxamer 188), read-out: AUC0-336 h): 30.1 ± 14.8 µM·h
AUC(0-t) (400 mg/mL solution Z (3.13% poloxamer 188), read-out: AUC0-672 h): 92.7 ± 31 µM·h
AUC(0-t) (400 mg/mL solution Z (3.13% poloxamer 188), read-out: AUC0-1008 h): 125 ± 31 µM·h
AUC(0-t) (400 mg/mL solution Z (3.13% poloxamer 188), read-out: AUC0-1344 h): 147 ± 32 µM·h
AUC(0-t) (400 mg/mL solution Z (3.13% poloxamer 188), read-out: AUC0-2352 h): 170 ± 33 µM·h
